How the values were obtained:
[1] = target: T1, TRβ (Homo sapiens, UniProt P10828); details: reference
T1 sequence (P10828 1-461): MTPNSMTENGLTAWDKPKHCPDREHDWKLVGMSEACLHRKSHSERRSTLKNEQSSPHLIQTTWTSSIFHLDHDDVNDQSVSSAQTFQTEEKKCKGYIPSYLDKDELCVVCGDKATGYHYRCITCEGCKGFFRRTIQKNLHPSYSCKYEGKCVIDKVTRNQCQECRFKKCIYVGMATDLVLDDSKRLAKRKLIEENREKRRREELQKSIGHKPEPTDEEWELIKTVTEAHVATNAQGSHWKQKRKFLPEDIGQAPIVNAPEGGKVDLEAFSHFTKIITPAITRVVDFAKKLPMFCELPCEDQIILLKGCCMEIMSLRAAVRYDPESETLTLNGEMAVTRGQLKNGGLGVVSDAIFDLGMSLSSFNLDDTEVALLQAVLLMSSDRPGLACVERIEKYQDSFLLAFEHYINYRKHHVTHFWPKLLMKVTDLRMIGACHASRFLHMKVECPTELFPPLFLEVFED
Method: using the U2-OS based CALUX cytotox bioassay. The cytotoxicity of each test chemical was assessed using the U2-OS based cytotoxicity CALUX bioassay. Concentrations causing >20% reduction of luminescence were considered cytotoxic.
cytotoxicity (relative induction in the cytotoxicity CALUX bioassay > 80%) were used for final
evaluation of analysis results.
induction in the cytotox CALUX bioassay > 80%) were used for final evaluation of analysis results.
All analysis results were expressed in molar (M) final in well.
For determination of the (anti-)ERα, (anti-)AR and (anti-)TRβ CALUX activities, CALUX cells were
seeded in assay medium. Following exposure of the CALUX cells to serial dilutions of the
compounds in triplicate for 24 h, the induction of luciferase production was quantified by measuring
luminescence following addition of the substrate luciferin. For antagonist assays, a fixed
concentration of assay agonist was present in each well, to generate a basal signal. On each plate, a
complete calibration curve for each respective bioassay was also analysed using the relevant reference
compounds. For the analyses in the presence of rat liver S9, 0.03% (v/v) of PB/BNF induced rat liver
S9 mix (including NADPH and an NADPH-regenerating system) was added to the cells directly after
addition of the compounds, which remained there for the duration of the exposure period (24 h) (van
(§1) Relative light units (RLUs) of the CALUX assays were analysed as follows. For agonist assays,
(§2) background values (exposure to DMSO only) were subtracted, and the maximum activity of the
(§3) assay’s reference compound was set to 100%. For antagonist assays, the basal signal (exposure to fixed concentration of agonist only) was set to 100%. Activity of the samples was scaled accordingly,
(§4) resulting in expression of the data as “percentage of maximum reference response”. Graphs were
(§5) generated using the statistical software package GraphPad Prism V5.03. Using these graphs, lowest
effect concentrations (LOECs) and PC50 concentrations were determined; LOEC is defined as the […]

[2] = tested on: H295R cells; details: reference: Forskolin (↑), prochloraz (↓)
Method: (§6) DMSO (1% compound stock in incubation mixture).
was measured on a Berthold luminometer.
(§7) Serial dilutions of the compounds were incubated in Tris -buffer (pH 8.0) overnight at 4°C in the
(§8) incubation mixture). After incubation, TTR-bound and free T4 were separated on a Bio-Gel P-6DG
(§9) column. The eluate was added to assay medium after which TRβ CALUX cells were exposed for 24 h
(§10) For this TRβ CALUX exposure, serum-free assay medium was used.
(§11) wells plates in assay medium, and exposed for 48h to a serial dilution of the compound in triplicate
(§12) exposure, the assay medium was analysed on the ERα and AR CALUX bioassays as described
(§13) Changes in hormone levels compared to a vehicle control exposure
(§14) Preincubation with rat liver S9 fraction
(§15) To assess the effect of metabolism on the activity of the test
(§16) compound for these assays, preincubations with rat liver S9 were performed. Compounds (10 μl
(§17) DMSO stock solution) were incubated for 0 h (control) or 3 h (test condition) in a total volume of 1
(§18) ml TRIS buffer in the presence of 1% (v/v) PB/BNF induced rat liver S9 mix (including NADPH and
(§19) an NADPH-regenerating system). After incubation, the reaction was stopped by the addition of ice
(§20) cold acetone, and samples were frozen to stimulate protein precipitation. After thawing, the
(§21) precipitated protein fraction was subsequently removed by centrifugation. The supernatant, cont aining
(§22) the metabolites and any remaining non-metabolised parent compound, was concentrated under a
(§23) gentle nitrogen flow. After evaporating to dryness, the sample was taken up in 50 μl DMSO followed
(§24) by the addition of 50 μl TRIS buffer. This extract was used for the exposure of the hTPO inhibition,
as §1, §2, §3, §4, §5
(§25) effect concentrations (LOECs) and PC50 concentrations were determined; LOEC is defined as the
(§26) maximum reference compound activity for agonist assays, and 20% of the maximum reference
(§27) compound activity for antagonist assays. The PC50 is defined as the concentration where the activity
(§28) of the sample equals 50% of the maximum activity of the assay’s reference compound.
(§29) the test compound was divided by the amount of estrogens and androgens produced by the solvent
(§30) control-exposed cells. A sample was considered ‘active’ if it decreased the hormone production 0.8-

[3] = tested on: H295R cells; details: reference: Forskolin (↑), prochloraz (↓); remark: listed apart in the source
Method: as §6
was measured on a Berthold luminometer.
as §7, §8, §9, §10, §11, §12, §13, §14, §15, §16, §17, §18, §19, §20, §21, §22, §23, §24, §1, §2, §3, §4, §5, §25, §26, §27, §28, §29, §30

[4] = target: T2, human thyroid peroxidase (hTPO) (Homo sapiens, UniProt P07202); details: reference
T2 sequence (P07202 19-933): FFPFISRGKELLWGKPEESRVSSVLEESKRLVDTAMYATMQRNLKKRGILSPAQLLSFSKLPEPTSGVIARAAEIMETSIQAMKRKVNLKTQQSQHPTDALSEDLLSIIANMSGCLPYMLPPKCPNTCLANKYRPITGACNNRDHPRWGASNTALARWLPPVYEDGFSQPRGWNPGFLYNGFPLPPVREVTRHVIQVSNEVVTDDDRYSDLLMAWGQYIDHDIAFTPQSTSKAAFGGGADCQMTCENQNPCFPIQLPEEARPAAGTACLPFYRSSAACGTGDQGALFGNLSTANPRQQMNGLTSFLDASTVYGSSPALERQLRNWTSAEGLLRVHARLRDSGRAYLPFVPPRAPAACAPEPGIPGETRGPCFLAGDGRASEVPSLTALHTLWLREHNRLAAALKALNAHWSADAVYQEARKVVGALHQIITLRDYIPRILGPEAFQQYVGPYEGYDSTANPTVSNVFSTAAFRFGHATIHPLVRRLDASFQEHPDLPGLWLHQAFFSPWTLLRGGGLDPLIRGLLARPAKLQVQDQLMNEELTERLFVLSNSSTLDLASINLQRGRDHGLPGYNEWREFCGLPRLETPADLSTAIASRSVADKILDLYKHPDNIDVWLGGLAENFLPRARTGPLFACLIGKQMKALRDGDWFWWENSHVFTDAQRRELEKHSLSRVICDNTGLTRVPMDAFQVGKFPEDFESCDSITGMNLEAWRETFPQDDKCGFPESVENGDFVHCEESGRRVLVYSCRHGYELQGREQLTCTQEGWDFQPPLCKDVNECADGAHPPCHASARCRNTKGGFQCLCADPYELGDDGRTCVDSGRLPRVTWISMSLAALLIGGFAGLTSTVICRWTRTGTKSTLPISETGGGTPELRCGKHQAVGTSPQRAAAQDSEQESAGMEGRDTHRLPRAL
Method: hTPO was derived from Nthy-ori 3-1 cells. Cell lysate containing hTPO in Glycine-NaOH buffer (pH
9.0) was incubated for 30 minutes at 37°C in the presence of serial dilutions of the compounds in
as §6
was measured on a Berthold luminometer.
as §14, §15
compound for these assays, preincubations with rat liver S9 were performed.

SMILES | Anti-TRß antithyroid LOEC, reference compound [1] | Steroidogenesis (ERα) 17β-estradiol LOEC, reference compound [2] | Steroidogenesis (AR) Testosterone LOEC, reference compound [3] | hTPO inhibition (thyroid) LOEC, reference compound [4]
CC1=C[C@H]2O[C@@H]3[C@H](O)C[C@](C)([C@@]2(CO)[C@H](O)C1=O)[C@]31CO1 [Deoxynivalenol, reference compound] | −6.9 Log M |  |  | 
C=C[C@@]1(C)CC(=O)[C@]2(O)[C@@]3(C)[C@@H](O)CCC(C)(C)[C@@H]3[C@H](O)[C@H](OC(C)=O)[C@@]2(C)O1 [Forskolin, reference compound] |  | −6.0 Log M | −6.0 Log M | 
Cn1cc[nH]c1=S [Methimazole, reference compound] |  |  |  | −6.3 Log M
CCCN(CCOc1c(Cl)cc(Cl)cc1Cl)C(=O)n1ccnc1 [prochloraz, reference compound] |  | −6.0 Log M | −6.0 Log M | 

Reference: PMC11220827 (Frontiers in Pharmacology, 2024)
